Patent US9695155B2, “Herbicidal substituted pyrimidinyloxy benzene compounds” (E. I. DU PONT DE NEMOURS AND COMPANY, priority 2013, dated 2017)

What was measured:
[1] = test system: velvetleaf; test: Test A preemergence; format: in vivo, Abutilon theophrasti
Outline: (§1)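 Greenhouse pot test, loam/sand soil. Formulation: non-phytotoxic solvent mix plus surfactant. Pre: directed spray onto soil after sowing. Post: plants at 1–2 leaf, 2–10 cm. Rated visually vs untreated controls at ~10 d, 0 (no effect) to 100 (complete control).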

[2] = test system: giant foxtail; test: Test A postemergence; format: in vivo, Setaria faberii; settings: 0 to 100 scale where 0 is no effect and 100 is complete control
Outline: as §1

[3] = test system: barnyardgrass; test: Test C flooded paddy test; format: in vivo, Echinochloa crus-galli; settings: Flood, scale 0 to 100 (0 no effect, 100 complete control), 13 to 15 days
Text: (§2) At time of treatment, test pots were flooded to 3 cm above the soil surface, treated by application of test compounds directly to the paddy water, and then maintained at that water depth for the duration of the test. Treated plants and controls were maintained in a greenhouse for 13 to 15 days, after which time all species were compared to controls and visually evaluated. […] A dash (-) response means no test result.

[4] = test system: ducksalad; test: Test C flooded paddy test; format: in vivo, Heteranthera limosa; settings: Flood, scale 0 to 100 (0 no effect, 100 complete control), 13 to 15 days
Text: as §2

[5] = test system: corn; test: Test A postemergence; format: in vivo, Zea mays
Outline: as §1

[6] = test system: giant foxtail; test: Test A preemergence; format: in vivo, Setaria faberii
Outline: as §1

[7] = test system: corn; test: Test A preemergence; format: in vivo, Zea mays
Outline: as §1

[8] = test system: wheat; test: Test A preemergence; format: in vivo, Triticum aestivum
Outline: as §1

[9] = test system: large (Lg) crabgrass; test: Test A preemergence; format: in vivo, Digitaria sanguinalis
Outline: as §1

[10] = test system: sedge, umbrella; test: Test B flooded paddy test; format: in vivo, Cyperus difformis; settings: Flood, 250 g ai/ha; 0 to 100 scale where 0 is no effect and 100 is complete control
Outline: (§3)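 2-leaf stage plants; pots flooded to 3 cm, compound added to paddy water, depth maintained. Greenhouse 13–15 d. Visual rating vs untreated controls, 0 (no effect) to 100 (complete control); dash = no result.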

[11] = test system: barnyardgrass; test: Test B flooded paddy test; format: in vivo, Echinochloa crus-galli; settings: Flood, 250 g ai/ha; 0 to 100 scale where 0 is no effect and 100 is complete control
Outline: as §3

[12] = test system: barnyardgrass; test: Test A preemergence; format: in vivo, Echinochloa crus-galli
Outline: as §1

[13] = test system: velvetleaf; test: Test A postemergence; format: in vivo, Abutilon theophrasti; settings: 0 to 100 scale where 0 is no effect and 100 is complete control
Outline: as §1

[14] = test system: rice; test: Test C flooded paddy test; format: in vivo, Oryza sativa; settings: Flood, scale 0 to 100 (0 no effect, 100 complete control), 13 to 15 days
Text: as §2

[15] = test system: wheat; test: Test A postemergence; format: in vivo, Triticum aestivum; settings: 0 to 100 scale where 0 is no effect and 100 is complete control
Outline: as §1

[16] = test system: rice; test: Test B flooded paddy test; format: in vivo, Oryza sativa; settings: Flood, 250 g ai/ha; 0 to 100 scale where 0 is no effect and 100 is complete control
Outline: as §3

[17] = test system: barnyardgrass; test: Test A postemergence; format: in vivo, Echinochloa crus-galli
Outline: as §1

[18] = test system: large (Lg) crabgrass; test: Test A postemergence; format: in vivo, Digitaria sanguinalis
Outline: as §1

[19] = test system: pigweed; test: Test A preemergence; format: in vivo, Amaranthus retroflexus
Outline: as §1

[20] = test system: Heteranthera limosa; test: Test B flooded paddy test; format: in vivo; settings: Flood, 250 g ai/ha; 0 to 100 scale where 0 is no effect and 100 is complete control
Outline: as §3

[21] = test system: pigweed; test: Test A postemergence; format: in vivo, Amaranthus retroflexus; settings: 0 to 100 scale where 0 is no effect and 100 is complete control
Outline: as §1

[22] = test system: morningglory; test: Test A postemergence; format: in vivo, Ipomoea spp.; settings: 0 to 100 scale where 0 is no effect and 100 is complete control
Outline: as §1

[23] = test system: sedge, umbrella; test: Test C flooded paddy test; format: in vivo, Cyperus difformis; settings: Flood, scale 0 to 100 (0 no effect, 100 complete control), 13 to 15 days
Text: as §2

[24] = test system: morningglory; test: Test A preemergence; format: in vivo, Ipomoea spp.
Outline: as §1

[25] = 125 g ai/ha, 0 to 100 scale where 0 is no effect and 100 is complete control
[26] = 500 g ai/ha, 0 to 100 scale, 0 no effect, 100 complete control, approx. 10 days
[27] = 500 g ai/ha, 0 to 100 scale, 0 no effect, 100 complete control

FC(F)c1cnn(-c2ccccc2Oc2ncc(Br)cn2)c1 [Compound 81]
10: Corn plant response rating [7, 26] | Plant response rating, Wheat [8, 25] | Wheat plant response rating [8, 26] | Plant response rating, Wheat ([15]; 125 g ai/ha)
30: Plant response rating, Ducksalad ([4]; 31 g ai/ha) | Plant response rating, Corn [5, 27]
50: Plant response rating, Velvetleaf [1, 25] | Plant response rating, Foxtail, Giant ([2]; 125 g ai/ha) | Plant response rating, Corn [5, 25] | Plant response rating, Barnyardgrass [17, 25] | Plant response rating, Morningglory ([22]; 125 g ai/ha) | Plant response rating, Sedge, Umbrella ([23]; 62 g ai/ha)
40: Plant response rating, Ducksalad ([4]; 62 g ai/ha) | Plant response rating, Crabgrass, Large [18, 25]
90: Plant response rating, Foxtail, Giant ([2]; 500 g ai/ha) | Plant response rating, Ducksalad ([4]; 250 g ai/ha) | Plant response rating, Crabgrass, Large [9, 25] | Plant response rating, Crabgrass, Large [18, 27] | Plant response rating, Ducksalad [20] | Plant response rating, Sedge, Umbrella ([23]; 250 g ai/ha)
100: Velvetleaf plant response rating [1, 26] | Foxtail, Giant plant response rating [6, 26] | Crabgrass, Large plant response rating [9, 26] | Plant response rating, Velvetleaf ([13]; 125 g ai/ha) | Plant response rating, Velvetleaf ([13]; 500 g ai/ha) | Plant response rating, Barnyardgrass [17, 27] | Plant response rating, Pigweed ([21]; 125 g ai/ha) | Plant response rating, Pigweed ([21]; 500 g ai/ha) | Plant response rating, Morningglory ([22]; 500 g ai/ha)
60: Plant response rating, Ducksalad ([4]; 125 g ai/ha) | Plant response rating, Wheat ([15]; 500 g ai/ha) | Morningglory plant response rating [24, 26]
70: Barnyardgrass plant response rating [12, 26] | Plant response rating, Sedge, Umbrella ([23]; 125 g ai/ha)
0: Plant response rating, Barnyardgrass ([3]; 31 g ai/ha) | Plant response rating, Barnyardgrass ([3]; 62 g ai/ha) | Plant response rating, Barnyardgrass ([3]; 125 g ai/ha) | Plant response rating, Barnyardgrass ([3]; 250 g ai/ha) | Plant response rating, Corn [7, 25] | Plant response rating, Barnyardgrass [11] | Plant response rating, Barnyardgrass [12, 25] | Plant response rating, Rice ([14]; 31 g ai/ha) | Plant response rating, Rice ([14]; 62 g ai/ha) | Plant response rating, Rice ([14]; 125 g ai/ha) | Plant response rating, Rice ([14]; 250 g ai/ha) | Plant response rating, Rice [16] | Plant response rating, Pigweed [19, 25] | Pigweed plant response rating [19, 26] | Plant response rating, Sedge, Umbrella ([23]; 31 g ai/ha) | Plant response rating, Morningglory [24, 25]
80: Plant response rating, Foxtail, Giant [6, 25] | Plant response rating, Sedge, Umbrella [10]
